# Experimental data published in patent US8946240B2, “4-amino-3-(imidazolyl)-pyrazolo[3,4-D]pyrimidines” (ChemoCentryx, Inc., priority 2008, dated 2015).
# Target: T1, CCR1 (Homo sapiens, UniProt P32246)
# T1 construct: host or cells: THP-1 cells or freshly isolated monocytes
# T1 sequence (P32246 1-355): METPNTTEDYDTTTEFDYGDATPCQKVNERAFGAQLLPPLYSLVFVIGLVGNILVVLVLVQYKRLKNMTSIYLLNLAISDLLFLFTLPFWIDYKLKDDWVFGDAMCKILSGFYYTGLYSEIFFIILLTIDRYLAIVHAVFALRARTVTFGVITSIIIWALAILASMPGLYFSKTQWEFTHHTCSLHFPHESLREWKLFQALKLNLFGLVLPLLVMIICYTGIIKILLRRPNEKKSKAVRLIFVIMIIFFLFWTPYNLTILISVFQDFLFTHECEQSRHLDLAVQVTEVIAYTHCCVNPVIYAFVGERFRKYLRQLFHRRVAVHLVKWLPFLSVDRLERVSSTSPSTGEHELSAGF
# Assay: chemotaxis assay (THP-1 cells or monocytes migrating to CCR1 chemokine ligands)
# Type: cell-based
# Details: chemotaxis assay; compared with drawing 40
# Procedure: THP-1 cells were obtained from ATCC (TIB-202) and cultured as a suspension in RPMI-1640 medium supplemented with 2 mM L-glutamine, 1.5 g/L sodium bicarbonate, 4.5 g/L glucose, 10 mM HEPES, 1 mM sodium pyruvate, 0.05% 2-mercaptoethanol and 10% FBS. Cells were grown under 5% CO2/95% air, 100% humidity at 37° C. and subcultured twice weekly at 1:5 (cells were cultured at a density range of 2×10^5 to 2×10^6 cells/mL) and harvested at 1×10^6 cells/mL. THP-1 cells express CCR1 and can be used in CCR1 binding and functional assays.
# One of the primary functions of chemokines is their ability to mediate the migration of chemokine receptor-expressing cells, such as white blood cells. To confirm that a compound of interest inhibited not only CCR1 specific binding and signaling (at least as determined by calcium mobilization assays), but also CCR1 mediated migration, a chemotaxis assay was employed. THP-1 myelomonocytic leukemia cells, which resemble monocytes, as wells as freshly isolated monocytes, were used as targets for chemoattraction by CCR1 chemokine ligands (i.e., MIP-1α, CCL15/leukotactin). Cells were place in the top compartment of a microwell migration chamber, 5 μm pore polycarbonate, polyvinylpyrrolidone-coated filters in 96-well chemotaxis chambers (Neuroprobe; Gaithersburg, Md.) using chemotaxis buffer (Hank's balanced salt solution (HBSS) and 1% FBS. CCR1 chemokine ligands (i.e., MIP-1α, CCL15/Leukotactin; R&D Systems; Minneapolis, Minn.) are used to evaluate compound mediated inhibition of CCR1 mediated migration. Other chemokines (i.e., SDF-1α; R&D Systems; Minneapolis, Minn.) are used as specificity controls. The lower chamber was loaded with 29 μl of chemokine (i.e., 0.1 nM CCL15/Leukotactin) and varying amounts of compound; the top chamber contained 100,000 THP-1 or monocyte cells in 20 μl. […] To ascertain a compound of interest's affinity for CCR1 as well as to confirm its ability to inhibit CCR1 mediated cell migration, inhibitory activity was titered over a 1×10^−10 to 1×10^−4 M range of compound concentrations in this chemotaxis assay. In this assay, the amount of compound was varied; while cell number and chemokine agonist concentrations were held constant. After the chemotaxis chambers were incubated 1-2 hours at 37° C., the responding cells in the lower chamber were quantified by labeling with the CyQuant assay (Molecular Probes), a fluorescent dye method that measures nucleic acid content, and by measuring with a Spectrafluor Plus (Tecan). The computer program Prism from GraphPad, Inc. (San Diego, Calif.) was used to calculate IC50 values. IC50 values are those compound concentrations required to inhibit the number of cells responding to a CCR1 agonist by 50%.
row,SMILES,IC50 relative to comparator compound
1,COc1cc(N2CCN(C(=O)Cn3nc(-c4ncc[nH]4)c4c(N)ncnc43)[C@@H](C)C2)c(F)cc1Cl [drawing 39],an order of magnitude lower

# Same assay, conditions: versus imidazole-substituted pyrido[4,3-b]pyrazoles of related U.S. application Ser. No. 12/124,894
row,SMILES,activity in direct comparisons relative to the related compounds tested
1,C[C@H]1CN(c2ccc(Cl)cc2F)CCN1C(=O)Cn1nc(-c2ncc[nH]2)c2c(N)ncnc21 [Compound 1.003],at least an order of magnitude better
2,COc1cc(N2CCN(C(=O)Cn3nc(-c4ncc[nH]4)c4c(N)ncnc43)[C@@H](C)C2)c(F)cc1Cl [Compound 1.006],at least an order of magnitude better
3,COc1cc(N2CCN(C(=O)Cn3nc(-c4ncc[nH]4)c4c(N)ncnc43)[C@@H](C)C2)ccc1Cl [Compound 1.004],at least an order of magnitude better
4,CCOc1cc(N2CCN(C(=O)Cn3nc(-c4ncc[nH]4)c4c(N)ncnc43)[C@@H](C)C2)ccc1Cl [Compound 1.011],at least an order of magnitude better
5,COc1cc(N2CCN(C(=O)Cn3nc(-c4ncc[nH]4)c4c(N)ncnc43)CC2)ccc1Cl [Compound 1.001],at least an order of magnitude better
6,CCOc1cc(N2CCN(C(=O)Cn3nc(-c4ncc[nH]4)c4c(N)ncnc43)CC2)ccc1Cl [Compound 1.007],at least an order of magnitude better
7,Nc1ncnc2c1c(-c1ncc[nH]1)nn2CC(=O)N1CCN(c2ccc(Cl)c(OC(F)(F)F)c2)CC1 [Compound 1.010],at least an order of magnitude better
